{"source": "patent US9821080B2", "about": "(priority 2011, dated 2017)", "key": {"[1]": {"test_system": "ST cells", "type": "cell-based, swine"}, "[2]": {"test_system": "H1N1", "set-up": "species or system influenza virus A/Puerto Rico/8/1934 (H1N1)"}}}
{"substance": "fluorescein isothiocyanate [FITC]", "values": [{"measurement": "fewer labelled virions infecting cells compared with 25 μg/ml FSL-FLRO4 modified H1N1", "setting": "[1]", "result": 9, "unit": "times"}, {"measurement": "total fluorescence relative to H1N1 modified with 25 μg/ml FSL-FLRO4", "setting": "[2]", "result": "about 9 times"}]}
